Where two headings read alike, the source gives them in different places.
Assays:
[1] = tested on: Sphaerotheca fuliginea; test: Cucumber powdery mildew preventive test; assay type: in vivo; details: in vivo
Protocol: In a greenhouse, cucumber (variety: Sagamihanshiro) planted in a plastic pot having a diameter of 5 cm was grown to the 3rd to 5th-leaf stage. Spray was carried out in the same manner as in Test example 1, and 3 days after the spray, a conidia suspension prepared from Sphaerotheca fuliginea were inoculated on the leaf surface. After inoculation, the pots were placed in a thermostatic greenhouse (20 to 25° C.), and controlling effects were examined after 7 days from the inoculation. In the examination, a ratio of lesion area occupied per one leaf of cucumber was determined according to the same index as in Test example 1, and the control value and the theoretical value according to Colby's formula were similarly calculated.
Wettable powder prepared in compliance with Comparative Preparation Example 4 containing the compounds indicated in Table 7-9 were sprayed to the cucumber leaves, a conidiospore suspension prepared from Sphaerotheca fuliginea was inoculated onto the plants, and the controlling effects were examined in a manner similar to Test Example 6.

[2] = tested on: Botrytis cinerea; details: in vivo
[3] = tested on: Pyricularia oryzae; assay type: in vivo; details: Table 3-4, group b ingredient alone
[4] = treatment concentration 10 + 10 ppm
[5] = treatment concentration 10 + 2 ppm

Compound	Preventive value [1]	Preventive value [2]	also measured
CCCCNC(=O)n1c(NC(=O)OC)nc2ccccc21 [Benomyl (b-58), Benomyl]	50	60	
OP(O)O [Phosphorous acid (b-105), Phosphorous acid]	33	33	
CC1(C)CCC(Cc2ccc(Cl)cc2)C1(O)Cn1cncn1 (stereo not drawn) [Metconazole (b-26), Metconazole]	50	40	
COC(=O)NCc1cc(/C(C)=N/OCc2cccc(C)n2)ccc1Cl [Pyribencarb (b-98), Pyribencarb]		40	
CC(C)(C)C(O)C(Oc1ccc(Cl)cc1)n1cncn1 (stereo not drawn) [Triadimenol (b-33), Triadimenol]		17	Preventive value ([3]; treatment concentration printed 10 + 250 ppm): 33
OC(c1cccnc1)c1c(-c2ccc(Cl)cc2F)noc1-c1ccc(F)cc1F (stereo not drawn) [Compound of (XVIII) (b-92)]	40	50	
Propineb [Propineb (b-69)]	17	33	
CCN(C)/C=N/c1cc(C)c(Oc2nc(Cc3ccc(Cl)cc3)ns2)cc1C [Compound of formula (XVII) (b-91)]	40	40	
O=c1c2cc(F)ccc2nc(-n2cncn2)n1-c1ccc(Cl)cc1Cl [Fluquinconazole (b-30), Fluquinconazole]	47	33	
COC(=O)Nc1nc2ccccc2[nH]1 [Carbendazim (b-59), Carbendazim]		40	
CCCCC(C#N)(Cn1cncn1)c1ccc(Cl)cc1 (stereo not drawn) [Myclobutanil (b-35), Myclobutanil]	33	17	
CCCC(Cn1cncn1)c1ccc(Cl)cc1Cl (stereo not drawn) [Penconazole(b-32)]	47		
CON(C(=O)c1cn(C)nc1C(F)F)C(C)Cc1c(Cl)cc(Cl)cc1Cl (stereo not drawn) [Compound of formula (III) (b-8)]	60	40	
Cn1cc(C(=O)Nc2ccccc2C2CC2C2CC2)c(C(F)F)n1 (stereo not drawn) [Sedaxane (b-6), Sedaxane]		50	Control value [1]: 40
C=CCSC(=O)n1c(N)c(-c2ccccc2C)c(=O)n1C(C)C [Fenpyrazamine (b-99), Fenpyrazamine]			Control value [1]: 33
OC(Cn1cncn1)(c1ccc(F)cc1)c1ccccc1F (stereo not drawn) [Flutriafol (b-34), Flutriafol]	40	33	
COc1cc(C)c(C(=O)c2c(OC)ncc(Cl)c2C)c(OC)c1OC [Pyriofenone (b-83), Pyriofenone]	40	33	
Fc1ccc(C2(Cn3nc[nH]c3=S)OC2c2ccccc2Cl)c(F)c1 (stereo not drawn) [Compound of (V) (b-36)]	33	40	
Cc1nn(C)c(Nc2c(F)cc(Cl)cc2F)c1-c1ccc(F)cc1Cl [Compound of formula (XV)-1 (b-89)]	40	40	
OC(Cc1ccccc1Cl)(Cn1nc[nH]c1=S)C1(Cl)CC1 (stereo not drawn) [Prothioconazole (b-23), Prothioconazole]		33	Preventive value [3, 4]: 33

Compound	Preventive value [1]	Preventive value [2]	also measured
CC(C)c1ccc(Cl)cc1CN(C(=O)c1c(C(F)F)nn(C)c1F)C1CC1 [Compound of formula (IV) (b-9)]	60	40	
COc1ccccc1N1CCS/C1=C(/C#N)Sc1cc(C(F)(F)F)ccc1F [Flutianil (b-77), Flutianil]	67	17	
O=C1c2ccccc2C(=O)N1SC(Cl)(Cl)Cl [Folpet (b-70), Folpet]	33	73	
CC1=C(C(=O)Nc2ccccc2)SCCO1 [Carboxin (b-41), Carboxin]		17	Control value [1]: 40
O=C(NCCc1ncc(C(F)(F)F)cc1Cl)c1ccccc1C(F)(F)F [Fluopyram (b-43), Fluopyram]		40	Preventive value [3, 4]: 40
CCCN(CCOc1c(Cl)cc(Cl)cc1Cl)C(=O)n1ccnc1 [Prochloraz(b-21)]	50		
CC(Cc1ccc(C(C)(C)C)cc1)CN1C[C@@H](C)O[C@@H](C)C1 (stereo partly drawn) [Fenpropimorph (b-65), Fenpropimorph]	33	17	
Cc1cc(C)nc(Nc2ccccc2)n1 [Pyrimethanil (b-62), Pyrimethanil]		33	Preventive value ([3]; treatment concentration printed 10 + 50 ppm): 33
N#Cc1ccccc1NC(=O)c1snc(Cl)c1Cl [Isotianil (b-46), Isotianil]			Preventive value [3, 4]: 50
Cc1ccc2nc3sc(=O)sc3nc2c1 [Chinomethionat (b-74), Chinomethionat]	50	17	
Cc1nn(C)c(F)c1C(=O)Nc1ccccc1C(C)CC(C)C (stereo not drawn) [Penflufen (b-5), Penflufen]		47	Control value [1]: 73
CO/C=C(/C(=O)OC)c1ccccc1COc1cccc(C(F)(F)F)n1 [Picoxystrobin (b-16), Picoxystrobin]			Preventive value [3, 5]: 50
CCCC1COC(Cn2cncn2)(c2ccc(Cl)cc2Cl)O1 (stereo not drawn) [Propiconazole (b-27), Propiconazole]	40	33	
COc1cc(C)c(C(=O)c2c(OC)ccc(Br)c2C)c(OC)c1OC [Metrafenone (b-82), Metrafenone]	40	0	
C=CCOC(Cn1ccnc1)c1ccc(Cl)cc1Cl (stereo not drawn) [Imazalil (b-20), Imazalil]	40	17	
Cc1nc(C(F)(F)F)c(C(=O)Nc2c(Br)cc(OC(F)(F)F)cc2Br)s1 [Thifluzamide (b-42), Thifluzamide]		23	Control value [1]: 73
CC(C)C1C2CCC1c1c(NC(=O)c3cn(C)nc3C(F)F)cccc12 (stereo not drawn) [Isopyrazam (b-7), Isopyrazam]		40	Control value [1]: 40
CCCOc1nc2ccc(I)cc2c(=O)n1CCC [Proquinazid (b-100), Proquinazid]	40	17	
N#Cc1ccccc1NC(=O)c1snc(Cl)c1Cl [Isotianil(b-46)]	33		
Fc1ccc(Oc2ccnc3cc(Cl)cc(Cl)c23)cc1 [Quinoxyfen (b-63), Quinoxyfen]	60	17	

Compound	Preventive value [1]	Preventive value [2]	also measured
CON=C(C(=O)OC)c1ccccc1CON=C(C)c1cccc(C(F)(F)F)c1 [Trifloxystrobin (b-55), Trifloxystrobin]		33	Preventive value [3, 5]: 57
Metiram [Metiram (b-67)]	33		
Fc1ccc([C@]2(Cn3cncn3)O[C@H]2c2ccccc2Cl)cc1 (racemic) [Epoxiconazole (b-24), Epoxiconazole]	40	33	
CN1OC(c2ccc(Cl)cc2)CC1(C)c1cccnc1 (stereo not drawn) [Pyrisoxazole (b-103), Pyrisoxazole]	33		
CCCCCCCCCCCCCN1CC(C)OC(C)C1 (stereo not drawn) [Tridemorph (b-66), Tridemorph]	33	17	
CNC(=O)/C(=N/OC)c1ccccc1Oc1ccccc1 [Metominostrobin (b-54), Metominostrobin]			Preventive value [3, 5]: 40
CCCC(Cn1cncn1)c1ccc(Cl)cc1Cl (stereo not drawn) [Penconazole (b-32), Penconazole]		17	
C[Si](Cn1cncn1)(c1ccc(F)cc1)c1ccc(F)cc1 [Flusilazole (b-31), Flusilazole]	33	17	
S1SSSSSSS1 [Sulfur (b-96), Sulfur]	73	0	
CC(C)C1CCC(Cc2ccc(Cl)cc2)C1(O)Cn1cncn1 (stereo not drawn) [Ipconazole (b-25), Ipconazole]	50	40	
CN(C)C(=S)SSC(=S)N(C)C [Thiuram (b-68), Thiuram]	33		
FC(F)C(F)(F)OCC(Cn1cncn1)c1ccc(Cl)cc1Cl (stereo not drawn) [Tetraconazole (b-22), Tetraconazole]	50	40	
Cc1cc(C2CC2)nc(Nc2ccccc2)n1 [Cyprodinil (b-61), Cyprodinil]		50	Control value [1]: 40
CC(C1CC1)C(O)(Cn1cncn1)c1ccc(Cl)cc1 (stereo not drawn) [Cyproconazole (b-28), Cyproconazole]	47	17	
CC1COC(Cn2cncn2)(c2ccc(Oc3ccc(Cl)cc3)cc2Cl)O1 (stereo not drawn) [Difenoconazole (b-29), Difenoconazole]	40	33	
CC(Cc1ccc(C(C)(C)C)cc1)CN1CCCCC1 (stereo not drawn) [Fenpropidin (b-102), Fenpropidin]	40	17	
c1ccc2[nH]c(-c3cscn3)nc2c1 [Thiabendazole (b-60), Thiabendazole]	40	57	
COC(=O)N(OC)c1ccccc1COc1ccn(-c2ccc(Cl)cc2)n1 [Pyraclostrobin (b-19), Pyraclostrobin]			Preventive value [3, 5]: 40
CCCN(CCOc1c(Cl)cc(Cl)cc1Cl)C(=O)n1ccnc1 [Prochloraz (b-21), Prochloraz]		17	
CCCN(CC)CC1COC2(CCC(C(C)(C)C)CC2)O1 (stereo not drawn) [Spiroxamine (b-101), Spiroxamine]	33	17	
